Source: PMC9916969 (International Journal of Molecular Sciences, 2023)
Read-outs that look alike come from different tables or passages of the source.

Tests used:
[1] = target: T1, equine serum BChE (Equus caballus, UniProt P81908); assay: biochemical; conditions: mean ± SEM, n = 3, read-out: Inhibitory activity against BChE, IC50
T1 construct: human erythrocyte AChE, equine serum BChE, and porcine liver CES were used; purchased Sigma-Aldrich; host or cells: equine serum (tissue-derived)
Text: (§1) Assessment of the esterase profile of new potential anti-AD molecules enables the estimation of both the primary pharmacological effects of the tested compounds—their inhibition of AChE and BChE—and their possible unwanted side effect—inhibition of CES, which hydrolyzes numerous ester-containing drugs. For the esterase profile evaluation, human erythrocyte AChE, equine serum BChE, and porcine liver CES were used. These sources of BChE and CES were employed because of their relatively low cost, high sequence identity to human enzymes, and the exploratory character of this work.
(§2) Chromophore absorbances were measured with a FLUOStar Optima microplate reader (BMG Labtech, Ortenberg, Germany). […] Initially, we used a single concentration of 20 µM for all compounds.

[2] = target: T2, human erythrocyte AChE (Homo sapiens, UniProt P22303); assay: biochemical; conditions: mean ± SEM, n = 3, read-out: Inhibitory activity against AChE, IC50
T2 construct: human erythrocyte AChE, equine serum BChE, and porcine liver CES were used; purchased Sigma-Aldrich; host or cells: human erythrocytes (tissue-derived)
T2 sequence (P22303 32-617 isoform P22303-2 limits assumed): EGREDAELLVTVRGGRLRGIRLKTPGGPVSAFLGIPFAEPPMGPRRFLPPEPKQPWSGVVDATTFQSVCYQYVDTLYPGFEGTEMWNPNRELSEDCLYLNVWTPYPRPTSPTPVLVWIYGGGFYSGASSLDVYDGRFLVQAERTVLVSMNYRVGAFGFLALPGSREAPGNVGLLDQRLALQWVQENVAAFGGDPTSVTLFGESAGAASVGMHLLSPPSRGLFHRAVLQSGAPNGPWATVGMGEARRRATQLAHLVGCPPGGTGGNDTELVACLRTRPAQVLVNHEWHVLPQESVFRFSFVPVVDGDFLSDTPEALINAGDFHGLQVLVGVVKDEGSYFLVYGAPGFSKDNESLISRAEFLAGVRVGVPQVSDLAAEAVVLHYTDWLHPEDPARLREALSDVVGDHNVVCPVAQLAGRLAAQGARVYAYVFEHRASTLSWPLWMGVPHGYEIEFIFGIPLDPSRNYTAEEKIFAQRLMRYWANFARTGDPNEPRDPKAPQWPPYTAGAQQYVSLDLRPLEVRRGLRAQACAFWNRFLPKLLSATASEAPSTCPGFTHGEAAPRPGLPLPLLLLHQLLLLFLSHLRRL
Text: as §1, §2

[3] = test system: porcine liver CES; assay: In vitro CES inhibition (4-NPA substrate); format: biochemical; conditions: compound 20 µM, n.a. = not active
Text: as §1, §2

[4] = target: T3, AChE (Homo sapiens, UniProt P22303); assay: Kinetic study of AChE inhibition (Lineweaver-Burk); format: biochemical
T3 construct: human erythrocyte AChE, equine serum BChE, and porcine liver CES were used; purchased Sigma-Aldrich; host or cells: human erythrocytes (tissue-derived)
T3 sequence (P22303 32-617 isoform P22303-2 limits assumed): as above
Experimental: (§3) We assessed the mechanisms of AChE and BChE inhibition by performing a thorough analysis of enzyme kinetics. After a 5 min incubation at 25 °C (for temperature equilibration) with three increasing concentrations of inhibitor and six decreasing substrate concentrations, the residual enzyme activity was measured as described above for enzymatic assays.

[5] = target: T4, eqBChE (Equus caballus, UniProt P81908); assay: Kinetic study of BChE inhibition (Lineweaver-Burk); format: biochemical
T4 construct: human erythrocyte AChE, equine serum BChE, and porcine liver CES were used; purchased Sigma-Aldrich; host or cells: equine serum (tissue-derived)
T4 sequence (P81908 whole entry): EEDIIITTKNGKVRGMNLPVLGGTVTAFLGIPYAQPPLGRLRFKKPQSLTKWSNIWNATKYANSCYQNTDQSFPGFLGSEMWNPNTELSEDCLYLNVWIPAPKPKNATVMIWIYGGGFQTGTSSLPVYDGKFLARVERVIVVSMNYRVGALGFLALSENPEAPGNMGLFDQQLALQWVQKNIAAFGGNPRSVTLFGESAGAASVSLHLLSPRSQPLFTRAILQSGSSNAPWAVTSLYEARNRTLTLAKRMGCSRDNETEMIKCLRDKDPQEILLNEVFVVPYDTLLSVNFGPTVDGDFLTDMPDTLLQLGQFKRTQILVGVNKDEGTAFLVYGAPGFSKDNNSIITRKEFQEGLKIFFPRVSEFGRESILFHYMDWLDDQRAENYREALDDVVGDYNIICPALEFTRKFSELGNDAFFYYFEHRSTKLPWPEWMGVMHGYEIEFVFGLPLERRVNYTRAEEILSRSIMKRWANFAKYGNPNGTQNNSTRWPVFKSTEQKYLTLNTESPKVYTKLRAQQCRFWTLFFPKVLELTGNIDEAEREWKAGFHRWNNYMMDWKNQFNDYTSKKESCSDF
Experimental: Similar results were obtained for other tested compounds (Figures S61 and S62). The obtained values of inhibition constants (Ki = competitive component and αKi = non-competitive component) are shown in Table 2.
as §3

[6] = target: T5, EeAChE PAS (Electrophorus electricus, UniProt O42275); format: binding; conditions: compound 20 µM; EeAChE 7 µM; propidium iodide 8 µM
T5 construct: The enzyme was electric eel AChE (EeAChE type VI-S, lyophilized powder, Sigma-Aldrich); purchased Sigma-Aldrich type VI-S; host or cells: electric eel (tissue-derived)
T5 sequence (O42275 24-633): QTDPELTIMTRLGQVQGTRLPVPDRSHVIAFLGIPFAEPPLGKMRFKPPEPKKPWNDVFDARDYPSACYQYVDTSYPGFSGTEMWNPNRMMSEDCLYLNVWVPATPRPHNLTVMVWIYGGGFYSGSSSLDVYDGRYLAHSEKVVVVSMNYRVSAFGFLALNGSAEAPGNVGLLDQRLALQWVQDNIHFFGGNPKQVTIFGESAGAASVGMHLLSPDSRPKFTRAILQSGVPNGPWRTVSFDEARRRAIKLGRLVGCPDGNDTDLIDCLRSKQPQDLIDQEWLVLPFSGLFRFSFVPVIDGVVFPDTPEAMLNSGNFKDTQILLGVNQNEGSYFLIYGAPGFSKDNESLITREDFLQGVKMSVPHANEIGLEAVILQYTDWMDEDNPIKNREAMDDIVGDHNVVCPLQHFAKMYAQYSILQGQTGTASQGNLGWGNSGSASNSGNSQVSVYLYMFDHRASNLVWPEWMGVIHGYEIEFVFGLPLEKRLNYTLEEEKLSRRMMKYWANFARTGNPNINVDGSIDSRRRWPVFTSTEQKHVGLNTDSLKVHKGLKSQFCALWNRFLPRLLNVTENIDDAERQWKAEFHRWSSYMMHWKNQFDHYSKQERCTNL
Text: This method is widely used as a screening approach to assess the potential ability of compounds to block AChE-induced β-amyloid aggregation. This is because when the compounds bind to the AChE PAS, they prevent the binding of β-amyloid, thereby inhibiting its aggregation.
The enzyme was electric eel AChE (EeAChE type VI-S, lyophilized powder, Sigma-Aldrich). We selected this source of AChE for consistency with our other reports and because of the purity, specific activity, and lower cost compared to human AChE.
Propidium iodide (final concentration 8 μM) was then added for a further 15 min incubation, and the fluorescence spectrum was taken (530 nm excitation and 600 nm emission) using a FLUOStar Optima microplate reader. The same concentration of propidium iodide in the Tris buffer was used as the blank. Triplicate determinations were recorded and the results were calculated via the following equation:% Displacement = 100 − (IFAChE+ Propidium + inhibitor/IFAChE + Propidium) × 100, where IFAChE + Propidium = fluorescence intensity of propidium iodide associated with AChE in the absence of the test compound (taken as 100%), and IFAChE + Propidium + inhibitor = fluorescence intensity of propidium iodide associated with AChE in the presence of the test compound.

[7] = target: β-amyloid (1–42) (Aβ42) (Homo sapiens, UniProt P05067); assay: Inhibition of Aβ42 self-aggregation (thioflavin T); format: biochemical; conditions: read-out: Inhibition of Aβ42 Self-Aggregation
Chain of β-amyloid (1–42) (Aβ42) (P05067 672-713 limits assumed): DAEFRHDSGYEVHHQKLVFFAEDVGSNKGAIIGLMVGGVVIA
Experimental: The inhibitory activity of tested hybrids against the self-aggregation of Aβ42 was determined in vitro using the thioflavin T (ThT) fluorimetric assay. According to [84], the ThT test is ideal for preliminary screening of inhibitors of Aβ42 self-aggregation, as it enables the quantitative testing of large numbers of compounds within a relatively short time.
The influence of the inhibitory effect of the test compounds toward Aβ42 self-aggregation was determined using the thioflavin T (ThT) fluorescence method with minor modifications. This assay is based on a specific interaction between the fluorescent dye thioflavin T that binds to the β-sheets of assembled amyloid fibrils leading to a significant increase in fluorescence signal. Therefore, the decrease in ThT fluorescence correlates with the ability of the studied compounds to inhibit the formation of amyloid aggregates.
One mg of lyophilized HFIP-pretreated Aβ42 from BACHEM (Bubendorf, Switzerland) was dissolved in DMSO to obtain a stable initial solution ([Aβ42] = 500 μM); then it was aliquoted and stored at −20 °C.
For the measurement of Aβ42 self-aggregation and amyloid fibril inhibition studies by the tested compounds, aliquots of 500 μM Aβ42 stock solution were diluted in 215 mM Na-phosphate buffer pH = 8.0 to a final concentration of 50 μM Aβ42. Then the samples were incubated for 24 h at 37 °C without stirring in the absence (base level of Aβ42 self-aggregation, control) or presence of the test compounds. Myricetin and propidium iodide were used as reference compounds (positive controls). All compounds were used in a concentration of 100 µM. To quantify Aβ42 fibril formation, after incubation, 5 μM ThT in 50 mM glycine-NaOH buffer pH 8.5 was added to the solutions to a final concentration of 4 μM ThT and the fluorescence was measured at 440 nm (excitation) and 485 nm (emission). Analyses were performed with a FLUOStar Optima microplate reader (LabTech, Ortenberg, Germany). The blanks consisted of 215 mM Na-phosphate buffer, pH = 8.0, 20% (v/v) DMSO or test compounds, respectively. Each assay was run in triplicate.

[8] = in vitro; format: cell-based; conditions: mouse
Experimental: […]. Accordingly, in the present work, we paid special attention to the study of the cytotoxic activity of compounds on primary cultures of mouse hepatocytes using standard MTT methodology.
The cytotoxicity of the compounds was evaluated using a primary culture of mouse hepatocytes isolated at the Center for Biotechnology and Bioengineering, Ural Federal University, Ekaterinburg, Russia, according to the standard method. Cells were seeded in 96-well plates in the inoculum dose of 1 × 10^4 cells/mL and cultured for 24 h in Dulbecco’s Modified Eagle Medium (DMEM), with 1% (w/v) glutamine in the presence of 10% (v/v) fetal bovine serum and gentamicin (50 mg/L) at 37 °C, with a humidified atmosphere of 5% (v/v) CO2. Cell viability was assessed using the standard MTT assay. The compounds were dissolved in DMSO and then in a nutrient medium, after which they were added to the wells with cells at final concentrations of 10^−7, 10^−6, 10^−5, and 10^−4 M. Hepatocytes were exposed to test compounds for 24 h at 37 °C, 95% relative humidity and 5% (v/v) CO2 atmosphere. After incubation, the medium was replaced with 100 μL of fresh medium containing MTT (0.5 mg/mL). The plates were then incubated at 37°C in a CO2 incubator for 2 h. Then the medium with MTT was removed and DMSO was added to dissolve the formazan crystals.
The results of the MTT assay were evaluated on a Tecan Infinite M200 PRO (Tecan Austria GmbH, Grödig, Austria) plate spectrophotometer at 570 nm by comparing the optical density of a formazan solution in the assay and control wells. The cell viability was expressed as the percentage of untreated control. The results were obtained from three independent experiments performed in six replicates. The IC50 (μM) values were calculated by the AAT Bioquest-calculator: (https://www.aatbio.com/tools/ic50-calculator, accessed on 1 December 2022) and expressed as a mean ± standard error of the mean (SEM). Statistical analysis was carried out using Microsoft Excel 2007 (Microsoft Corporation, Redmond, WA, USA) and Statistica 2009 (Tulsa, OK, USA) programs.

[9] = FRAP assay; conditions: Trolox equivalents; 60 min, 37 °C; n.a. = not active
Experimental: The Ferric Reducing Antioxidant Power (FRAP) test involves reduction of the ferric 2,4,6-tripyridyl-s-triazine complex [Fe(TPTZ)2]^3+ to an intense-blue ferrous complex [Fe(TPTZ)2]^2+ [92], as previously reported. Results are given as Trolox Equivalents (TE).
The FRAP (ferric reducing antioxidant power) assay proposed by Benzie and Strain [92] was modified to be performed in 96-well microplates as described in detail in [53]. The FRAP reagent contained 2.5 mL of 10 mM TPTZ (2,4,6-tris(2-pyridyl)-s-triazine, Sigma-Aldrich) solution in 40 mM HCl, 2.5 mL of 20 mM FeCl3 (Sigma-Aldrich) in distilled water and 25 mL of 0.3 M acetate buffer (pH 3.6). Aliquots of 10 µL of the test compound dissolved in DMSO (0.5 mM) were placed in quadruplicate. Absorbance was measured at a wavelength of 593 nm after 60 min incubation at 37 °C. In each case, Trolox was used as a reference compound to obtain the standard curve. The AO activity was calculated with respect to the activity of Trolox and expressed as Trolox equivalents (TE)—the values calculated as the ratio of the concentrations of Trolox and the test compound resulting in the same effect on ferric reducing activity.

[10] = mixed-type inhibition, mean ± SEM
[11] = Aβ42 50 µM, compound 100 µM, 24 h, 37 °C, thioflavin T

T1 sequence (P81908 whole entry): as the sequence (P81908 whole entry) above

Row | SMILES | IC50 [1] [nM] | IC50 [2] [nM] | Inhibitory activity against CES, inhibition at 20 µM [3] [%] | αKi (non-competitive inhibition constant), AChE [4, 10] [µM] | Ki ([4]; read-out: Ki (competitive inhibition constant), AChE) [nM] | αKi (non-competitive inhibition constant), eqBChE [5, 10] [µM] | Ki ([5]; read-out: Ki (competitive inhibition constant), eqBChE) [nM] | Propidium Displacement from EeAChE PAS [6] [%] | inhibition at 100 µM [7, 11] [%] | IC50 at 24 h [8] [nM] | FRAP, TE [9] | inhibition at 100 µM [7] [%]
1 | COc1ccccc1C(=O)NCCCCCCCCNc1c2c(nc3ccccc13)CCCC2 [6c] | 47.5 ± 3.2 | 150 ± 11 | 10.6 ± 1.2 | 0.213 ± 0.012 | 104 ± 4 | 0.0314 ± 0.0025 | 18.8 ± 1.1 | 14.1 ± 0.9 | 55.6 ± 4.4 | 3810 ± 70 |  | 
2 | COc1cc(F)c(F)cc1C(=O)NCCCCCCNc1c2c(nc3ccccc13)CCCC2 [8b] | 70.2 ± 4.2 | 712 ± 67 | 6.3 ± 0.9 |  |  |  |  | 13.8 ± 0.9 | 29.7 ± 2.3 | 3950 ± 220 | 0.02 | 
3 | Nc1c2c(nc3ccccc13)CCCC2 [Tacrine, reference compound] |  |  |  |  |  |  |  |  |  | 3780 ± 150 |  | 5.9 ± 0.5
